The text below walks through data of PubChem BioAssay (NCI).

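Grown in 96-well plates, cells were treated for 48 hours with each compound at five concentrations. Insufficient inhibition: endpoint recorded as highest concentration tested. TGI: concentration producing complete growth inhibition.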

Test systems include COLO 205 colon; UACC-62 melanoma; MALME-3M melanoma; LOX IMVI melanoma; RPMI-8226 leukemia; UACC-257 melanoma; SW-620 colon; HT29 colon; SF-295 CNS; SK-MEL-28 melanoma; KM12 colon; NCI-H460 lung; SK-MEL-2 melanoma; OVCAR-8 ovarian; SK-OV-3 ovarian; IGROV1 ovarian; UO-31 renal.
What all share (experiment): NCI-60 cell line screen, 48 h

For `C=C(C)C1Cc2c(cc(OC)c3c(=O)c4ccccc4n(C)c23)O1` (stereo not drawn), the TGI in the assay on COLO 205 colon, in the assay with UACC-62 melanoma, in the assay on MALME-3M melanoma, in the assay with LOX IMVI melanoma, in the assay with RPMI-8226 leukemia and in the assay on UACC-257 melanoma was greater than 100 µM in each case. Also, the TGI in the assay on SW-620 colon, with HT29 colon, with SF-295 CNS, in the assay with SK-MEL-28 melanoma, in the assay with KM12 colon and in the assay on NCI-H460 lung was greater than 100 µM each time. Further, the TGI in the assay with SK-MEL-2 melanoma, in the assay with OVCAR-8 ovarian, with SK-OV-3 ovarian, in the assay on IGROV1 ovarian and in the assay on UO-31 renal was greater than 100 µM in each case.
As for `CC(=O)n1cc(CC(C)O)c(=O)[nH]c1=O` (stereo not drawn), the TGI with COLO 205 colon, with UACC-62 melanoma, with LOX IMVI melanoma, with RPMI-8226 leukemia, with UACC-257 melanoma and with SW-620 colon was greater than 100 µM throughout. The TGI with HT29 colon, with SF-295 CNS, with SK-MEL-28 melanoma, in the assay with KM12 colon, with NCI-H460 lung and with SK-MEL-2 melanoma was greater than 100 µM throughout. The TGI in the assay with OVCAR-8 ovarian, with SK-OV-3 ovarian, in the assay on IGROV1 ovarian and in the assay on UO-31 renal was greater than 100 µM each time.
In the case of `C[N+](C)(C)CC(=O)N/N=C/c1oc(-c2cccc([N+](=O)[O-])c2)c(-c2cccc([N+](=O)[O-])c2)c1[N+](=O)[O-]`, the TGI was greater than 100 µM with COLO 205 colon; greater than 100 µM in the assay with UACC-62 melanoma; greater than 100 µM in the assay on MALME-3M melanoma; 55.3 µM in the assay with RPMI-8226 leukemia; greater than 100 µM in the assay on UACC-257 melanoma; greater than 100 µM with SW-620 colon. Also, the TGI in the assay with HT29 colon, with SK-MEL-28 melanoma, in the assay on NCI-H460 lung, in the assay with SK-MEL-2 melanoma, in the assay with OVCAR-8 ovarian and in the assay on SK-OV-3 ovarian was greater than 100 µM in each case. Further, the TGI in the assay with IGROV1 ovarian and with UO-31 renal was greater than 100 µM throughout.
With `CN(C(=O)C12C3C4C1C1C2C3C41C(=O)N(C)C(C)(C)C)C(C)(C)C` (stereo not drawn), the TGI in the assay on COLO 205 colon, in the assay with UACC-62 melanoma, with MALME-3M melanoma, in the assay on SW-620 colon, with HT29 colon and with SF-295 CNS was greater than 50 µM each time. The TGI with SK-MEL-28 melanoma, in the assay with OVCAR-8 ovarian, in the assay on SK-OV-3 ovarian, in the assay on IGROV1 ovarian and in the assay on UO-31 renal was greater than 50 µM each time.
Turning to `O=C(O)/C(=C/c1ccccc1[N+](=O)[O-])c1cccs1`, the TGI with COLO 205 colon, in the assay with UACC-62 melanoma, with LOX IMVI melanoma, in the assay on RPMI-8226 leukemia, with UACC-257 melanoma and in the assay on SW-620 colon was greater than 100 µM throughout. Besides, the TGI with HT29 colon, with SF-295 CNS, in the assay with SK-MEL-28 melanoma, in the assay with KM12 colon, in the assay with NCI-H460 lung and in the assay with SK-MEL-2 melanoma was greater than 100 µM in each case. The TGI with OVCAR-8 ovarian, in the assay on SK-OV-3 ovarian, with IGROV1 ovarian and with UO-31 renal was greater than 100 µM throughout.
Regarding `O=S(=O)(c1ccccc1)n1cnc(CCc2ccccc2)n1`, the TGI in the assay on COLO 205 colon, with UACC-62 melanoma, in the assay with MALME-3M melanoma, in the assay on LOX IMVI melanoma, with RPMI-8226 leukemia and in the assay with UACC-257 melanoma was greater than 100 µM each time. Further, the TGI in the assay with SW-620 colon, in the assay with HT29 colon, with SF-295 CNS, in the assay with SK-MEL-28 melanoma, in the assay with KM12 colon and in the assay with NCI-H460 lung was greater than 100 µM throughout. Besides, the TGI with SK-MEL-2 melanoma, in the assay with OVCAR-8 ovarian, in the assay on SK-OV-3 ovarian, in the assay on IGROV1 ovarian and in the assay with UO-31 renal was greater than 100 µM each time.
On to `Cc1no[n+]([O-])c1/C=N/NS(=O)(=O)c1ccccc1`, for which the TGI with COLO 205 colon, with UACC-62 melanoma, in the assay on MALME-3M melanoma, with RPMI-8226 leukemia, in the assay with SW-620 colon and with HT29 colon was greater than 100 µM throughout. The TGI in the assay on SK-MEL-28 melanoma, in the assay on KM12 colon, in the assay with SK-MEL-2 melanoma, in the assay on OVCAR-8 ovarian, in the assay with SK-OV-3 ovarian and with IGROV1 ovarian was greater than 100 µM in each case. In the assay with UO-31 renal, this compound displayed a TGI greater than 100 µM.
Regarding `C=CC(Br)(CBr)CCC(Br)C(C)(C)Br` (stereo not drawn), the TGI was determined as 28.8 µM in the assay on COLO 205 colon; 24.6 µM in the assay on UACC-62 melanoma; 30.4 µM in the assay with MALME-3M melanoma; 25.5 µM with LOX IMVI melanoma; 11.9 µM in the assay with RPMI-8226 leukemia; 27.6 µM with UACC-257 melanoma. Moreover, the TGI with SW-620 colon is 26.6 µM; with HT29 colon, 26.8 µM; in the assay on SF-295 CNS, 16 µM; with SK-MEL-28 melanoma it was 29.8 µM; in the assay on KM12 colon, 22.3 µM; in the assay with NCI-H460 lung, 23.4 µM. The TGI amounted to 29.7 µM with SK-MEL-2 melanoma; 30.1 µM in the assay with OVCAR-8 ovarian; 35.7 µM with SK-OV-3 ovarian; 28.5 µM in the assay with IGROV1 ovarian; 28.8 µM in the assay with UO-31 renal.
As for `CCOC(=O)c1ncn2c1[nH]c(=O)c1ccccc12`, the TGI in the assay with COLO 205 colon, with UACC-62 melanoma, in the assay with MALME-3M melanoma, in the assay with LOX IMVI melanoma, with RPMI-8226 leukemia and with SW-620 colon was greater than 100 µM each time. For the same compound, the TGI in the assay on HT29 colon, in the assay on SF-295 CNS, in the assay on SK-MEL-28 melanoma, in the assay on KM12 colon, with NCI-H460 lung and in the assay on SK-MEL-2 melanoma was greater than 100 µM each time. Besides, the TGI in the assay on OVCAR-8 ovarian, in the assay with IGROV1 ovarian and in the assay on UO-31 renal was greater than 100 µM throughout.
For `Cc1ccc(S(=O)(=O)C(C#N)c2nc3ccccc3nc2N2CCOCC2)cc1` (stereo not drawn), the TGI is greater than 100 µM in the assay with COLO 205 colon; 28.5 µM with UACC-62 melanoma; 63.5 µM in the assay with MALME-3M melanoma; 57.3 µM in the assay on LOX IMVI melanoma; 87.6 µM in the assay on RPMI-8226 leukemia; greater than 100 µM with UACC-257 melanoma. Further, the TGI was greater than 100 µM with SW-620 colon; 51.9 µM in the assay on SK-MEL-28 melanoma; 38.2 µM in the assay on KM12 colon; 39.7 µM in the assay with NCI-H460 lung; 88.6 µM in the assay with SK-MEL-2 melanoma; greater than 100 µM in the assay on SK-OV-3 ovarian. In addition, the TGI was 59.1 µM in the assay on IGROV1 ovarian and greater than 100 µM in the assay on UO-31 renal.
Regarding `Cc1ccc(SC2C(C)(C)N(C(C)C)P2(=O)N(C(C)C)C(C)C)cc1` (stereo not drawn), the TGI is greater than 64.1 µM in the assay on COLO 205 colon; greater than 100 µM in the assay with UACC-62 melanoma; greater than 100 µM in the assay with MALME-3M melanoma; greater than 59.9 µM in the assay on LOX IMVI melanoma; 36.8 µM in the assay with RPMI-8226 leukemia; 67.5 µM in the assay on UACC-257 melanoma. For the same compound, the TGI is greater than 50 µM with SW-620 colon; greater than 100 µM in the assay on HT29 colon; greater than 100 µM in the assay on SF-295 CNS; greater than 100 µM with SK-MEL-28 melanoma; greater than 100 µM in the assay on KM12 colon; greater than 67.6 µM with NCI-H460 lung. Also, the TGI in the assay on SK-MEL-2 melanoma, in the assay with OVCAR-8 ovarian, with SK-OV-3 ovarian, in the assay with IGROV1 ovarian and in the assay on UO-31 renal was greater than 100 µM in each case.
With `COC(=O)NN/C=C(\C=Nc1ccccc1)[N+](=O)[O-]`, the TGI with COLO 205 colon, in the assay on UACC-62 melanoma, with LOX IMVI melanoma, in the assay on RPMI-8226 leukemia, in the assay with UACC-257 melanoma and in the assay on SW-620 colon was greater than 100 µM throughout. For the same compound, the TGI in the assay on HT29 colon, in the assay on SK-MEL-28 melanoma, with NCI-H460 lung, with OVCAR-8 ovarian, in the assay on SK-OV-3 ovarian and in the assay with IGROV1 ovarian was greater than 100 µM in each case. In the assay with UO-31 renal, this compound had a TGI greater than 100 µM.
For the compound `NC(=O)c1ccccc1NC(=O)C(=O)Nc1n[nH]c(N)n1`, the TGI with COLO 205 colon, with UACC-62 melanoma, in the assay with MALME-3M melanoma, in the assay on LOX IMVI melanoma, in the assay with RPMI-8226 leukemia and in the assay with UACC-257 melanoma was greater than 100 µM each time. In addition, the TGI with SW-620 colon, in the assay with HT29 colon, in the assay with SF-295 CNS, in the assay with KM12 colon, in the assay with NCI-H460 lung and in the assay on SK-MEL-2 melanoma was greater than 100 µM in each case. Besides, the TGI with OVCAR-8 ovarian, with SK-OV-3 ovarian, in the assay with IGROV1 ovarian and with UO-31 renal was greater than 100 µM in each case.
For the compound `O=C(Cc1nc2ccc(C(=O)c3ccccc3)cc2[nH]c1=O)C(=O)Nc1ccc(C(F)(F)F)cc1[N+](=O)[O-]`, the TGI with COLO 205 colon, in the assay with UACC-62 melanoma, in the assay on MALME-3M melanoma, in the assay on LOX IMVI melanoma, with RPMI-8226 leukemia and with UACC-257 melanoma was greater than 100 µM in each case. Also, the TGI in the assay with SW-620 colon, in the assay on HT29 colon, in the assay with SF-295 CNS, in the assay with SK-MEL-28 melanoma, in the assay on KM12 colon and with NCI-H460 lung was greater than 100 µM in each case. The TGI in the assay with SK-MEL-2 melanoma, with OVCAR-8 ovarian, in the assay on SK-OV-3 ovarian, in the assay on IGROV1 ovarian and in the assay with UO-31 renal was greater than 100 µM in each case.
